In patent publication US8808702B2, “Sulfide, sulfoxide and sulfone chalcone analogues, derivatives thereof and therapeutic uses thereof” (Temple University-of the Commonwealth System of Higher …, priority 2006, dated 2014):

What was measured:
[1] = test system: K562 (chronic myelogenous leukaemia); test: Effect of compounds on tumor cell lines (assay of Latham et al.), K562; assay type: cell-based; conditions: Homo sapiens; Table 4; K562 cells, examined 96 hours after treatment, 1 μM to 100 μM in DMSO; read-out: K 562 potency (IC50)
Procedure, shortened: (§1)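 K562 or DU145 cells plated at 2.5×10^4 cells/well, treated 24 h later with compound in DMSO at 1 μM to 100 μM (0.1 μM to 100 μM for one compound). Activity judged by microscopic observation after 96 h; where needed, viable cells counted by trypan blue exclusion.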

DU145 (prostate cancer) = test: Effect of compounds on tumor cell lines (assay of Latham et al.), DU145; assay type: cell-based; conditions: Homo sapiens, DU-145; Table 4; DU145 cells, examined 96 hours after treatment, 1 μM to 100 μM in DMSO; read-out: DU 145 potency (IC50)
Procedure, shortened: as §1

Row | SMILES | melting point | IC50 [1] | IC50 (DU145 (prostate cancer))
1 | Cc1ccc(CS(=O)(=O)/C(=C/c2c(O)cc(O)cc2O)C(=O)c2ccc(Cl)cc2)cc1 [Example 424] | 167 to 180 °C | > 100 µM | > 100 µM
2 | Cc1ccc(CS(=O)(=O)/C(=C/c2cc(C)ccc2C)C(=O)c2ccc(Cl)cc2)cc1 [Example 425] | 176 to 182 °C | 1 to 10 µM | 1 to 10 µM
3 | Cc1ccc(CS(=O)(=O)/C(=C/c2ccccc2OCc2ccccc2)C(=O)c2ccc(Cl)cc2)cc1 [Example 426] | 112 to 129 °C | 1 to 10 µM | 1 to 10 µM
4 | Cc1ccc(CS(=O)(=O)/C(=C/c2cc(C)cc(C)c2)C(=O)c2ccc(Cl)cc2)cc1 [Example 429] | 169 to 178 °C | 10 to 25 µM | 10 to 25 µM
5 | Cc1ccc(CS(=O)(=O)/C(=C/c2c[nH]c3ccccc23)C(=O)c2ccc(Cl)cc2)cc1 [Example 430] | 160 to 165 °C | > 100 µM | 25 to 50 µM
6 | Cc1ccc(CS(=O)(=O)/C(=C/c2sccc2C)C(=O)c2ccc(Cl)cc2)cc1 [Example 431] | 98 to 105 °C | 25 to 50 µM | 25 to 50 µM
7 | Cc1ccc(CS(=O)(=O)/C(=C/c2ccc(N(C)C)cc2)C(=O)c2ccc(Cl)cc2)cc1 [Example 432] | 150 to 154 °C | 50 to 100 µM | 50 to 100 µM

More lines, now with the values ahead:

Row | melting point | IC50 [1] | IC50 (DU145 (prostate cancer)) | SMILES
8 | 160 to 165 °C | 10 to 25 µM | 25 to 50 µM | Cc1ccc(CS(=O)(=O)/C(=C/c2ccc(Br)cc2)C(=O)c2ccc(Cl)cc2)cc1 [Example 433]
9 | 128 to 133 °C | 25 to 50 µM | 25 to 50 µM | Cc1ccc(CS(=O)(=O)/C(=C/c2ccc(Cl)cc2)C(=O)c2ccc(Cl)cc2)cc1 [Example 434]
10 | 65 to 72 °C | 10 to 25 µM | 10 to 25 µM | CCOc1ccc(/C=C(\C(=O)c2ccc(Cl)cc2)S(=O)(=O)Cc2ccc(C)cc2)cc1OC [Example 435]
11 | 140 to 152 °C | 25 to 50 µM | 10 to 25 µM | CSc1ccc(/C=C(\C(=O)c2ccc(Cl)cc2)S(=O)(=O)Cc2ccc(C)cc2)cc1 [Example 437]
12 | 110 to 112 °C | 1 to 10 µM | 10 to 25 µM | Cc1ccc(CS(=O)(=O)/C(=C/c2ccc(S(C)(=O)=O)cc2)C(=O)c2ccc(Br)cc2)cc1 [Example 438]
13 | 186 to 195 °C | 10 to 25 µM | 10 to 25 µM | Cc1ccc(CS(=O)(=O)/C(=C/c2c[nH]c3ccc(Br)cc23)C(=O)c2ccc(Cl)cc2)cc1 [Example 439]
14 | 171 to 178 °C | 25 to 50 µM | 25 to 50 µM | Cc1ccc(CS(=O)(=O)/C(=C/c2ccc(C)s2)C(=O)c2ccc(Cl)cc2)cc1 [Example 440]
